Test results as given in the supplement of paper PMC13380429.

Assays:
Settings in all cases: 72 h
[1] = tested on: Vero E6; test: drug sensitivity score (DSS) for viability; higher = more toxic; extreme values may be limits of the assay
[2] = tested on: Calu-3; test: as above
[3] = tested on: HepG2; test: as above
[4] = tested on: Caco-2; test: as above
[5] = tested on: Vero E6; test: relative viability EC50 (midpoint between 100% and the lowest measured viability); higher = less toxic
[6] = tested on: Calu-3; test: as above
[7] = tested on: HepG2; test: as above
[8] = tested on: Caco-2; test: as above
[9] = tested on: Vero E6; test: cell viability relative to DMSO; higher = less toxic
[10] = tested on: Calu-3; test: as above
[11] = tested on: HepG2; test: as above
[12] = tested on: Caco-2; test: as above
[13] = tested on: U2OS; test: drug sensitivity score (DSS) for viability; higher = more toxic; extreme values may be limits of the assay
[14] = tested on: U2OS; test: relative viability EC50 (midpoint between 100% and the lowest measured viability); higher = less toxic
[15] = tested on: U2OS; test: cell viability relative to DMSO; higher = less toxic

Row | Compound | drug sensitivity score [1] | drug sensitivity score [2] | drug sensitivity score [3] | drug sensitivity score [4] | relative viability EC50 [5] [µM] | relative viability EC50 [6] [µM] | relative viability EC50 [7] [µM] | relative viability EC50 [8] [µM] | cell viability ([9]; 1 nM) [%] | cell viability ([9]; 10 nM) [%] | cell viability ([9]; 100 nM) [%] | cell viability ([9]; 1000 nM) [%] | cell viability ([9]; 10000 nM) [%] | cell viability ([10]; 1 nM) [%] | cell viability ([10]; 10 nM) [%] | cell viability ([10]; 100 nM) [%] | cell viability ([10]; 1000 nM) [%] | cell viability ([10]; 10000 nM) [%] | cell viability ([11]; 1 nM) [%] | cell viability ([11]; 10 nM) [%] | cell viability ([11]; 100 nM) [%] | cell viability ([11]; 1000 nM) [%] | cell viability ([11]; 10000 nM) [%] | cell viability ([12]; 1 nM) [%] | cell viability ([12]; 10 nM) [%] | cell viability ([12]; 100 nM) [%] | cell viability ([12]; 1000 nM) [%] | cell viability ([12]; 10000 nM) [%] | drug sensitivity score [13] | relative viability EC50 [14] [µM] | cell viability ([15]; 1 nM) [%] | cell viability ([15]; 10 nM) [%] | cell viability ([15]; 100 nM) [%] | cell viability ([15]; 1000 nM) [%] | cell viability ([15]; 10000 nM) [%]
1 | CCCC(C)NC(=O)c1ccc(Cl)c(Cl)c1 (centres undefined) | 0 | 0 | 0 | 0 | > 10 | > 10 | > 10 | > 10 | 104 | 101 | 99.3 | 103 | 99.8 | 103 | 77.1 | 99 | 77.4 | 104 | 97.1 | 104 | 92.8 | 98 | 98.6 | 120 | 98 | 104 | 117 | 94.5 | – | – | – | – | – | – | –
2 | CCc1cncnc1N1CCN(Cc2nc3cc(C(F)(F)F)ccc3[nH]2)CC1 | 0 | 1.1 | 4.8 | 2.1 | > 10 | > 10 | 2.21 | – | 99.5 | 104 | 101 | 101 | 89.9 | 80.8 | 101 | 84.2 | 89.9 | 88.2 | 97.6 | 103 | 103 | 92.4 | 34.8 | 93.2 | 109 | 99 | 98.5 | 61.8 | 0.9 | > 10 | 96.6 | 101 | 98.5 | 97.7 | 79.9
3 | COc1ccc(CC2NCCc3c2[nH]c2ccc(C)cc32)c(Cl)c1OC (centres undefined) | 2.1 | 1.3 | 0 | 0 | > 10 | – | > 10 | > 10 | 99 | 93.2 | 101 | 89.1 | 76.5 | 101 | 95.9 | 92.9 | 102 | 66.8 | 103 | 90.2 | 108 | 104 | 91.7 | 94.8 | 98.2 | 105 | 102 | 87.9 | 0 | > 10 | 95.4 | 101 | 98.3 | 101 | 94
4 | C[C@@H](CN1CCC(n2c(=O)[nH]c3cc(Cl)ccc32)CC1)NC(=O)c1ccc2ccccc2c1 | – | 0.7 | 0.9 | 1 | – | > 10 | > 10 | > 10 | – | – | – | – | – | 102 | 99.7 | 96.2 | 94.2 | 82.1 | 99.9 | 102 | 85.6 | 94.1 | 82.9 | 93.8 | 105 | 101 | 97.4 | 79.5 | 0 | > 10 | 106 | 102 | 100 | 98.1 | 91.1
5 | C[C@H](NC(=O)c1sccc1OCc1ccc(Cl)cc1)c1ccccc1 | 0 | 0 | 0.7 | 1.9 | > 10 | > 10 | > 10 | – | 113 | 107 | 108 | 100 | 96.8 | 102 | 96 | 99.6 | 107 | 98.1 | 104 | 108 | 105 | 103 | 75.8 | 97.9 | 103 | 104 | 97 | 67.7 | 0 | > 10 | 92.3 | 103 | 98.7 | 99.9 | 88.6
6 | O=C(Nc1ccc(CN2CCOCC2)cc1)c1ccc(-c2cccc(Cl)c2)o1 | 0 | 0 | 0 | 0 | > 10 | > 10 | > 10 | > 10 | 100 | 100 | 102 | 99.4 | 102 | 98.3 | 95.4 | 97.3 | 97.8 | 91 | 107 | 104 | 97.8 | 93.7 | 99.5 | 110 | 102 | 99.9 | 104 | 95.7 | – | – | – | – | – | – | –
7 | Cc1noc(C)c1-c1ccc(-c2cc(C(N)=O)c(NC(N)=O)s2)c(O[C@H]2CCNC2)c1 [AZD3264] | 0 | 0 | 0 | 0 | > 10 | > 10 | > 10 | > 10 | 102 | 104 | 105 | 97.4 | 103 | 97.4 | 95.7 | 103 | 101 | 105 | 114 | 97.6 | 99.8 | 101 | 99.4 | 95.7 | 100 | 100 | 103 | 106 | – | – | – | – | – | – | –
